Drawing on patent US11629145B2, “SHP2 phosphatase inhibitors and methods of use thereof” (Relay Therapeutics, Inc., priority 2016, dated 2023), this text covers IC50 for 45 molecules.

SMILES strings stand for the structures. Bounds are passed on as bounds.

SHP2, sequence (Q06124 whole entry): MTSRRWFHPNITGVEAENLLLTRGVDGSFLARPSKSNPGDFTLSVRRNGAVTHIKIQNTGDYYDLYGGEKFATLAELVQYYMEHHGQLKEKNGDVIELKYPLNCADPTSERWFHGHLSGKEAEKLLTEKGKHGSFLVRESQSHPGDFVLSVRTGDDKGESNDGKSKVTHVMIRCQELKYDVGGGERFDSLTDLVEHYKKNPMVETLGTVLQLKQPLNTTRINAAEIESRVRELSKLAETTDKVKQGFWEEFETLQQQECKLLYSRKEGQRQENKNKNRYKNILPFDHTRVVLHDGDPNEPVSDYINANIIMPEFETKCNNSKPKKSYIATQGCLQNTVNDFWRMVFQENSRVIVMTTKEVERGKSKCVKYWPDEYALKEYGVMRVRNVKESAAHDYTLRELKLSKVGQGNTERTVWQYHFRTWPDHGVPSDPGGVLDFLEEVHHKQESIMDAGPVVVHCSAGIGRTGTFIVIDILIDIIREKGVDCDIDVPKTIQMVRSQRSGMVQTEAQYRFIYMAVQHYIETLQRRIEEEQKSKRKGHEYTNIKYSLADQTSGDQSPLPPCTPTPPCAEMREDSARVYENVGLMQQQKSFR

The assay concerns the target SHP2 (Homo sapiens (Human), UniProt Q06124). Put plainly: SHP2 Allosteric Inhibition Assay. Conditions: 0.25 nM SHP2 activated with 0.5 μM bis-phosphorylated IRS1 peptide; DiFMUP substrate, prompt fluorescence. The assay is classed as biochemical.
Regarding `CC1(N)CCN(c2cnc3c(Oc4ccccc4)n[nH]c3n2)CC1` [Compound 20], the 50% inhibitory concentration (IC50) is less than 1 µM. As for `CC1(N)CCN(c2cnc3c(OC4CCCNC4)n[nH]c3n2)CC1` (stereo not drawn) [Compound 21], the IC50 is no less than 10 µM.

In the case of `CC1(N)CCN(c2cnc3c(OCc4ccccc4)n[nH]c3n2)CC1` [Compound 22], the IC50 is less than 1 µM. In turn, `Cc1cc(Oc2n[nH]c3nc(N4CCC(C)(N)CC4)cnc23)ccn1` [Compound 23] gave an IC50 of less than 1 µM. `Cc1cnccc1Oc1n[nH]c2nc(N3CCC(C)(N)CC3)cnc12` [Compound 24]: the IC50 is less than 1 µM. Consider `CC1(N)CCN(c2cnc3c(OCc4cccnc4)n[nH]c3n2)CC1` [Compound 25], for which the IC50 fell in the range of 1 to 10 µM.

`CC1(N)CCN(c2cnc3c(Oc4ccccc4C#N)n[nH]c3n2)CC1` [Compound 26] returned an IC50 of less than 1 µM. Turning to `CC1(N)CCN(c2cnc3c(Oc4ncccc4C#N)n[nH]c3n2)CC1` [Compound 27], the IC50 was less than 1 µM. The figure for `CC(Oc1n[nH]c2nc(N3CCC(C)(N)CC3)cnc12)c1ccccc1` (stereo not drawn) [Compound 28] is less than 1 µM; for `Cc1nccc(Oc2n[nH]c3nc(N4CCC(C)(N)CC4)cnc23)c1C` [Compound 29] it is less than 1 µM. For `CC1(N)CCN(c2cnc3c(OCc4cccnc4N)n[nH]c3n2)CC1` [Compound 30], the IC50 is less than 1 µM. Next, `CC1(N)CCN(c2cnc3c(Oc4ccccc4Cl)n[nH]c3n2)CC1` [Compound 31]: less than 1 µM. In the case of `CC1(N)CCN(c2cnc3c(Oc4ccncc4Cl)n[nH]c3n2)CC1` [Compound 32], the IC50 was less than 1 µM. Regarding `CC1(N)CCN(c2cnc3c(OCc4ccccc4C#N)n[nH]c3n2)CC1` [Compound 33], the IC50 was less than 1 µM. The figure for `CC1(N)CCN(c2cnc3c(Oc4ccc(N)cc4C#N)n[nH]c3n2)CC1` [Compound 34] is less than 1 µM; for `CC(=O)N1CCCC(Oc2n[nH]c3nc(N4CCC(C)(N)CC4)cnc23)C1` (stereo not drawn) [Compound 35] it is 1 to 10 µM; for `CC1(N)CCN(c2cnc3c(Oc4ccc(N)cc4Cl)n[nH]c3n2)CC1` [Compound 36] it is less than 1 µM. For `Cc1cc(Oc2n[nH]c3nc(N4CCC(C)(N)CC4)cnc23)c(Cl)cn1` [Compound 37], the IC50 is less than 1 µM. Next, `Cc1nccc(Oc2n[nH]c3nc(N4CC[C@@H](N)C[C@@H]4C)cnc23)c1Cl` [Compound 38]: less than 1 µM; `Cc1nccc(Oc2n[nH]c3nc(N4CCC(C)(N)CC4)cnc23)c1Cl` [Compound 39]: less than 1 µM; `CC1(N)CCN(c2cnc3c(OCc4ccncc4Cl)n[nH]c3n2)CC1` [Compound 40]: less than 1 µM.

Take `CC1(N)CCN(c2cnc3c(Oc4cc(N)ncc4Cl)n[nH]c3n2)CC1` [Compound 42]: the IC50 was less than 1 µM. Next, `CC1(CN)CCN(c2cnc3c(Oc4ccnc(N)c4Cl)n[nH]c3n2)C1` (stereo not drawn) [Compound 43]: less than 1 µM. Consider `CC1(N)CCN(c2cnc3c(Oc4cccc(C(F)F)n4)n[nH]c3n2)CC1` [Compound 44], for which the IC50 is 1 to 10 µM. The figure for `CC1(N)CCN(c2cnc3c(Oc4ccnc(O)c4Cl)n[nH]c3n2)CC1` [Compound 45] is less than 1 µM. The figure for `CC1(N)CCN(c2cnc3c(OCc4cccc5[nH]ccc45)n[nH]c3n2)CC1` [Compound 46] is less than 1 µM.

As to `COc1nccc(Oc2n[nH]c3nc(N4CCC(C)(N)CC4)cnc23)c1C#N` [Compound 47], the IC50 is less than 1 µM. In the case of `CC1(CN)CCN(c2cnc3c(Oc4ccnc(N)c4Cl)n[nH]c3n2)CC1` [Compound 48], the IC50 was less than 1 µM. Regarding `Cc1nccc(Oc2n[nH]c3nc(N4CCC(O)(CN)CC4)cnc23)c1Cl` [Compound 49], the IC50 was less than 1 µM.

`COc1nccc(Oc2n[nH]c3nc(N4CCC(C)(N)CC4)cnc23)c1Cl` [Compound 50] gave an IC50 of less than 1 µM. The figure for `CC1(N)CCN(c2cnc3c(Oc4ccncc4C(F)(F)F)n[nH]c3n2)CC1` [Compound 51] is less than 1 µM. Molecule `CC1(CN)CCN(c2cnc3c(Oc4ccnc(Cl)c4Cl)n[nH]c3n2)C1` (stereo not drawn) [Compound 52] yielded an IC50 of less than 1 µM. Next, `C[C@H]1C[C@H](N)CCN1c1cnc2c(Oc3ccnc(Cl)c3Cl)n[nH]c2n1` [Compound 53]: less than 1 µM; `CC1(N)CCN(c2cnc3c(Oc4ccnc(Cl)c4Cl)n[nH]c3n2)CC1` [Compound 54]: less than 1 µM.

Consider `CC1(N)CCN(c2cnc3c(Oc4ccnc(C(N)=O)c4Cl)n[nH]c3n2)CC1` [Compound 55], for which the IC50 is less than 1 µM. The figure for `CC1(CN)CCN(c2cnc3c(Oc4ccnc(Cl)c4Cl)n[nH]c3n2)CC1` [Compound 56] is less than 1 µM; for `NCC1(O)CCN(c2cnc3c(Oc4ccnc(Cl)c4Cl)n[nH]c3n2)CC1` [Compound 57] it is less than 1 µM. For `CC1(N)CCN(c2cnc3c(Oc4ccnc(NC5COC5)c4Cl)n[nH]c3n2)CC1` [Compound 58], the IC50 was in the range of 1 to 10 µM. Next, `CC1(N)CCN(c2cnc3c(Oc4cc(Br)ncc4Cl)n[nH]c3n2)CC1` [Compound 59]: less than 1 µM; `Cn1cc(-c2nccc(Oc3n[nH]c4nc(N5CCC(C)(N)CC5)cnc34)c2Cl)cn1` [Compound 60]: less than 1 µM. `CC1(N)CCN(c2cnc3c(Oc4ccnc(-c5nccs5)c4Cl)n[nH]c3n2)CC1` [Compound 61]: the IC50 was less than 1 µM. Next, `CC1(N)CCN(c2cnc3c(Oc4ccnc(N5CCOCC5)c4Cl)n[nH]c3n2)CC1` [Compound 62]: less than 1 µM.

On to `COc1ccc(Cn2nc(Oc3ccnc(Cl)c3Cl)c3ncc(N4CC[C@@H](N)C[C@@H]4C)nc32)cc1` [Compound 63], for which the IC50 was no less than 10 µM. As to `COc1ccc(Cn2nc(Oc3ccnc(Cl)c3Cl)c3ncc(N4CCC(O)(CN)CC4)nc32)cc1` [Compound 64], the IC50 is no less than 10 µM.

As to `CC1(N)CCN(c2cnc3c(N4CCCCc5ccccc54)n[nH]c3n2)CC1` [Compound 82], the IC50 is less than 1 µM.
